Measured values taken from ChEMBL document CHEMBL1201862, “PubChem BioAssay data set” (2004).
Calls of active or inactive are those of the source.

Experiments:
[1] = target: Endoplasmic reticulum aminopeptidase 1 (Homo sapiens, UniProt Q9NZ08); experiment: inhibition of human ERAP1 enzyme activity – biochemical, cherry-pick, set 2, plate reader, dose response (AID 743314)
H9c2 = experiment: cells; type: functional, cell-based; details: Rattus norvegicus, H9c2, Myocardium;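 further: confirmatory concentration-response retest of ultra-high-throughput screening hits for modulation of myocardial damage; cell death induced by hydrogen peroxide oxidative stress; compound pretreatment for 60 min then peroxide exposure for 2 h; potency is for protecting the cells against peroxide damage rather than for killing them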
[2] = viability loss in Vero cells – cytotoxicity control for Vif-APOBEC3G degradation inhibitor project, dose response (AID 1117358); type: functional; details: Vero
[3] = tested on: Streptococcus sp. 'group A'; experiment: Streptococcus pyogenes SK(-)GAS viability under kanamycin – luminescence, BacTiterGlo, confirmation, counter-screen for streptokinase expression inhibitor project, dose response (AID 1900); type: functional, organism-based
Streptokinase A = target: T1, Streptokinase A (Streptococcus pyogenes serotype M1, UniProt P10520); experiment: viability-normalized secreted streptokinase activity reduction – plasminogen activation absorbance, OD405, dose response (AID 1914); type: functional, Streptococcus pyogenes M1 GAS;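 further: secreted streptokinase activity via plasminogen activation per viability signal from cell pellet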
T1 sequence (P10520 whole entry): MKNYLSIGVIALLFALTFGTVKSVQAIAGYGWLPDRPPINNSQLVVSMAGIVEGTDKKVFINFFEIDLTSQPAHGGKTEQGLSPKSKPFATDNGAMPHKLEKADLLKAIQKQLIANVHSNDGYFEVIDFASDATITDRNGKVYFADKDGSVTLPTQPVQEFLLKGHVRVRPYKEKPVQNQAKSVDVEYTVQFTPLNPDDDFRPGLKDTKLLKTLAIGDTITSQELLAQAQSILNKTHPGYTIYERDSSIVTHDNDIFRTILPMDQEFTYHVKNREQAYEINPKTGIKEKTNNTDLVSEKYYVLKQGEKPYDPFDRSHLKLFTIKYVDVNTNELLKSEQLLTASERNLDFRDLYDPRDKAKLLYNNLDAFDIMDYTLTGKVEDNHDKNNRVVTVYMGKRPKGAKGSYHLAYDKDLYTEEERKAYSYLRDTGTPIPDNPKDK

[4] = Trypanosoma cruzi growth suppression in host cells – NIH3T3 host cells, beta-gal luminescence, confirmation (AID 2044); type: functional, cell-based;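 further: intracellular parasites grown in NIH/3T3 mouse fibroblasts as host cells; luminescent beta-galactosidase reporter signal from transgenic T. cruzi replicating inside host cells; inhibitors lower the luminescence signal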
[5] = viability of PTEN-deleted HCT116 cells – cell-based, HCT116 PTEN knockout, dose response (AID 1047); type: functional;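 further: HCT116 colon tumor cells with PTEN knocked out; cells exposed to compound for 60 hours before readout; potency for loss of cell viability measured by luminescence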
[6] = NIH3T3 cell viability loss – ATP luminescence, mouse fibroblasts, counter-screen, dose response (AID 2010); type: functional, cell-based;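 further: cells exposed to compound for about 90 hours before reading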
[7] = viability of HCT116 lacking mutant beta-catenin – cell-based, human colon tumor, dose response (AID 1045); type: functional;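 further: HCT116 colon tumor cells with beta catenin knocked out; cells exposed to compound for 60 hours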
Streptococcus = experiment: GAS UMAA2166 growth inhibition – luminescence, BacTiterGlo, counter-screen for streptokinase expression inhibitor project, dose response (AID 1915); type: functional, organism-based;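 further: potency for reduction of bacterial viability or growth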
[8] = Luminescence Cell-Based Dose Retest to Confirm Inhibitors of Cancer Stem Cells. [Related pubchem assays (depositor defined):AID2717, AID2721]; type: functional; details: Homo sapiens
Cytochrome P450 2C19 = Cytochrome P450 2C19 (Homo sapiens, UniProt P33261); experiment: Cytochrome panel assay with activity outcomes. Panel member name: p450-cyp2c19 Compounds with AC50 equal or less than 10 uM are considered active; type: functional; details: read-out: AC50
Cytochrome P450 1A2 = target: T2, Cytochrome P450 1A2 (Homo sapiens, UniProt P05177);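 further: PubChem cytochrome P450 panel assay, CYP1A2 panel member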
T2 sequence (P05177 whole entry): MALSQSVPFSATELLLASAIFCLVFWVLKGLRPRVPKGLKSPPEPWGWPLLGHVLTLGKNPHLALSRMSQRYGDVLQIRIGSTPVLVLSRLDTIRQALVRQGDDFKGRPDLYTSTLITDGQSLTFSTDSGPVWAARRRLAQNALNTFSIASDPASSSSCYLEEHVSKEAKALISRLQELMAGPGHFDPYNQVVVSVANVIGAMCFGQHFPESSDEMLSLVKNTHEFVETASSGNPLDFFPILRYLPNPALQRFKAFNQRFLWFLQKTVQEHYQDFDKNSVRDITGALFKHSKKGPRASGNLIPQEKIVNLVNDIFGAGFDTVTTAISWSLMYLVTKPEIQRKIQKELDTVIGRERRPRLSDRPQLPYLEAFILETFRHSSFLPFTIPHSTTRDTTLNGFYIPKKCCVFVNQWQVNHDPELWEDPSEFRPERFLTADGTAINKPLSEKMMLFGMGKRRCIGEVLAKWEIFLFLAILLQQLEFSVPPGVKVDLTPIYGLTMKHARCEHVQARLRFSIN

Cytochrome P450 2C9 = Cytochrome P450 2C9 (Homo sapiens, UniProt P11712)
Cytochrome P450 2C9, sequence (P11712 whole entry): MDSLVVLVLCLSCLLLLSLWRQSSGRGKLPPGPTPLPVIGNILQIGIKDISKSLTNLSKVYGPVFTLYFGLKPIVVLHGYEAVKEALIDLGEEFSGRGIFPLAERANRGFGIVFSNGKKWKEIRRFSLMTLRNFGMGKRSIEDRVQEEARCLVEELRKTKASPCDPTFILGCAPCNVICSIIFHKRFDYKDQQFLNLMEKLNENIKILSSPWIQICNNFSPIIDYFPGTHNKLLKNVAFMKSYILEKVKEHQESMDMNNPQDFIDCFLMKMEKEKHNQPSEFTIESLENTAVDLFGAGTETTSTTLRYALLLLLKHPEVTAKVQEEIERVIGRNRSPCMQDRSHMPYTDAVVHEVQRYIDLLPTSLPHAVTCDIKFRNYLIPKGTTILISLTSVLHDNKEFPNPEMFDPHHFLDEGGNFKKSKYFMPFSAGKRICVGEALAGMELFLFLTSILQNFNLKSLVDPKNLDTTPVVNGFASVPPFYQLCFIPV

Endoplasmic reticulum aminopeptidase 1, sequence (Q9NZ08 whole entry): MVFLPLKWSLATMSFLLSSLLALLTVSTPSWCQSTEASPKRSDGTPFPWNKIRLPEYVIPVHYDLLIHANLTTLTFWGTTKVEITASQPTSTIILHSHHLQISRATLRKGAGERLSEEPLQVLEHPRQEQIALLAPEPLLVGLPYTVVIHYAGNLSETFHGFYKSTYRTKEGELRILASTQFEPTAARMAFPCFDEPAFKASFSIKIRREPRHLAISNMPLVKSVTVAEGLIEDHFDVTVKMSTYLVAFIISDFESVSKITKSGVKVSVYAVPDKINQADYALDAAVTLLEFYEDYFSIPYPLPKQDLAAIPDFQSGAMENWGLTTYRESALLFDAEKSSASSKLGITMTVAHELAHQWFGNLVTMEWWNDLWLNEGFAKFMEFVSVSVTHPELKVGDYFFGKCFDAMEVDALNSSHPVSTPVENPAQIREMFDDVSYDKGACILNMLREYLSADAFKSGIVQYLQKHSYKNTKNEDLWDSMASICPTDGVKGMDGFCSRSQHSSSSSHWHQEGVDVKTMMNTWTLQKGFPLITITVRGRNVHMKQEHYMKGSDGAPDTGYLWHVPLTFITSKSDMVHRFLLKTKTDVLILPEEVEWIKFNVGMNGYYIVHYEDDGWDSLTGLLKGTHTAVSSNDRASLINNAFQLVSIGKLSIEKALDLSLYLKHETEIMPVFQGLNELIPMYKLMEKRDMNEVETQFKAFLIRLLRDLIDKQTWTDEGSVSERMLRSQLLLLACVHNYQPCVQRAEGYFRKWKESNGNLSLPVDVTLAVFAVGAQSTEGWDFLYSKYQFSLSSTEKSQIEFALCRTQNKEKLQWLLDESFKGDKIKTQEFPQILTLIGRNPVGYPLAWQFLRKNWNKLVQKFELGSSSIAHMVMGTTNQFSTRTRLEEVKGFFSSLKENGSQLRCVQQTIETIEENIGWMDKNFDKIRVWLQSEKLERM
Cytochrome P450 2C19, sequence (P33261 whole entry): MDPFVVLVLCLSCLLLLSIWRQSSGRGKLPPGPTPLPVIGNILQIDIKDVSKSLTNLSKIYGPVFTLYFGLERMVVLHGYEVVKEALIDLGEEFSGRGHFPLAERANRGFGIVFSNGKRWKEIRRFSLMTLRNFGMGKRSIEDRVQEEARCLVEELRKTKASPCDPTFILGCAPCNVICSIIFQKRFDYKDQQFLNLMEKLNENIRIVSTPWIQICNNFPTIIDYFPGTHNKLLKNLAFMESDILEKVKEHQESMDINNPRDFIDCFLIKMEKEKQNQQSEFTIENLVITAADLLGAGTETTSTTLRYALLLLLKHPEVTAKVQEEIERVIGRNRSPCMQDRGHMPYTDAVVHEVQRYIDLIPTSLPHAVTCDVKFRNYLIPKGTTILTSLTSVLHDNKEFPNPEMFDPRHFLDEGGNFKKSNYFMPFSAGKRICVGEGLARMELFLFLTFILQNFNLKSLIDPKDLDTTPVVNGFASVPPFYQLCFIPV

**Q.** With CC(=O)N1[C@@H]2c3ccc(/C=C/c4ccccc4)c(=O)n3C[C@H]1[C@H](CO)[C@H]2C(=O)N(C)C as the compound, how does the AC50 [1] read?
**A.** The AC50 was 4.5 µM (active).

**Q.** Which IC50 (H9c2) does the source give for Cc1ccc(C)c2nc(O)c(CN(Cc3ccc4c(c3)OCO4)Cc3nnnn3Cc3ccco3)cc12 here?
**A.** The IC50 was > 79 µM (inactive).

**Q.** And the CC50 [2]?
**A.** Its CC50 is > 40 µM (active).

**Q.** For O=C(/C=C/c1ccccc1)NC(NC(=S)Nc1cc(Cl)ccc1Cl)C(Cl)(Cl)Cl (stereo unspecified), which EC50 [3] is on record?
**A.** Its EC50 is 2.43 µM (active).

**Q.** What about the EC50 (Streptokinase A) of the same compound?
**A.** The EC50 was 4.43 µM (active).

**Q.** What about the EC50 [4] of the same compound?
**A.** Its EC50 is 1.73 µM (active).

**Q.** What about the EC50 [5] of the same compound?
**A.** The EC50 was 17.3 µM (active).

**Q.** What about the EC50 [6] of the same compound?
**A.** The EC50 was > 60 µM (not active).

**Q.** And the EC50 [7]?
**A.** Its EC50 is 16.1 µM (active).

**Q.** And the EC50 (Streptococcus)?
**A.** Its EC50 is 64.2 µM (active).

**Q.** And the AC50 [8]?
**A.** The AC50 was 0.993 µM (active).

**Q.** What about the CC50 [2] of the same compound?
**A.** Its CC50 is > 40 µM (active).

**Q.** Which AC50 (Cytochrome P450 2C19) does the source give for O=C(NNC(=O)c1ccccc1-n1cccc1)c1ccc(Cl)c(Cl)c1 here?
**A.** Its AC50 is 3.98 µM (inconclusive).

**Q.** And the CC50 [2]?
**A.** The CC50 was > 40 µM (active).

**Q.** And the AC50 (Cytochrome P450 1A2)?
**A.** The AC50 was 25.1 µM (inconclusive).

**Q.** What about the AC50 (Cytochrome P450 2C9) of the same compound?
**A.** The AC50 was “inconclusive”.
